Values after ≈ are worked out from the molar mass of the structure shown. Where two headings read alike, the source gives them in different places.
Key:
[1] = tested on: A. viscosus; assay: In vitro plaque growth inhibition (bovine enamel slabs), A. viscosus; assay type: cell-based, Actinomyces viscosus; settings: for Total Growth ID50 (50% growth inhibition dosage): 2 min contact, about 24 h incubation, aerobic
Experimental: (§1) Various compositions prepared in accord with the above examples were tested in vitro for plaque inhibition in comparison with prior art compounds. The test used is set forth in detail in Comparison of Antiplaque Agents Using an In Vitro Assay Reflecting Oral Conditions by R. T. Evans et al, Journal of Dental Research, June 1977.
(§2) In summary incisor teeth from bovine mandibles, obtained immediately after slaughter, are cut into 4×8 mm enamel slabs and sterilized in a 0.15M NaCl solution buffered at a pH of 7.5 with 0.02M sodium phosphate (PBS soln). Before use the slabs are coated with sterile saliva and then rinsed twice in sterile PBS. The slabs are then placed in small plastic petri dishes containing various concentrations of the compositions to be tested. The test solution used in accordance is a solution of the test compound in a mixture of 20% by volume of ethanol, 40% by volume of propylene glycol and 40% by volume of a pH 8 aqueous buffer solution containing mono and di sodium phosphates. The slabs are left in the solution of the test compound for two minutes and then rinsed in sterile PBS solution. After rinsing, each slab is placed in a 10×75 mm cotton stoppered glass culture tube containing 1 ml of sucrose-broth culture medium which is then innoculated with a 24 hour culture of the desired microorganism standardized to an optical density (OD)540 of 0.75 for A. viscosus and S. mutans. […] of the inoculation medium is used. A. viscosus is incubated under aerobic conditions and the S. mutans is incubated under anaerobic conditions (5% CO2 and 95% H2). After incubation for about 24 hours the nonadherent organisms are removed and the tube is rinsed twice with 0.5 ml of PBS and the washings combined with the nonadherent organisms.
(§3) The tooth slabs are then transferred to 1 ml of 0.1 N NaOH and 1 ml of 0.1N NaOH is also added to the glass culture tubes. The slabs and tubes are then sonically agitated, if necessary to suspend the adherent organisms. The optical density of each of the three fractions is then measured on a spectophotometer. The tests are repeated with varying concentrations of the compositions being tested until growth inhibition curves can be developed. The 50% growth inhibition dosages (ID50) are then determined with a reliability of +or -80% or better. The compounds tested are samples (a)-(e) as follows: (a) tribromosalan; (b) 5-n-decanoyl-4'-nitrosalicylanilide; (c) 5-n-decylsulfonyl-4'-nitro-salicylanilide; (d) 5-n-decylsulfonyl-4'-trifluoromethyl-salicylanilide; and, (e) 5-n-decylsulfonyl-3'-trifluoromethyl-salicylanilide.

[2] = tested on: S. mutans; assay: In vitro plaque growth inhibition (bovine enamel slabs), S. mutans; assay type: cell-based, Streptococcus mutans; settings: for Total Growth ID50 (50% growth inhibition dosage): 2 min contact, about 24 h incubation, anaerobic
Experimental: as §1, §2, §3

[3] = tested on: S. mutans; assay: Tube dilution assay (Macro-Broth Dilution Method), S. mutans; assay type: cell-based; settings: Streptococcus mutans, read-out: Minimal Inhibitory Concentration
Experimental: (§4) Various compositions prepared in accord with the above examples were tested in vitro for minimal concentration to inhibit or kill organisms in comparison to prior art compounds. The test used is set forth in detail in Manual of Clinical Microbiology, third edition, pages 456-475 (Macro-BrothDilution Method), 1980, American society for microbiology.
(§5) In the test procedure serial dilutions of the antimicrobic compound are innoculated with the organism to be inhibited and incubated. The minimum inhibitory concentration (MIC) is the lowest concentration of antimicrobic compound that is achieved without visible growth of the organism. The test method comprises preparing a stock solution of antimicrobic compound and diluting it in a Meuller-Hinton broth. A series of sterile 13 by 100 mm, cotton-plugged, test tubes are set out wherein 2 ml of the broth diluted antimicrobic solution (working solution) is added to the first tube and to each remaining tube is added 1.0 ml of non-antimicrobic containing broth. 1.0 ml of working solution from the first tube is transferred to the second tube and thoroughly mixed therewith. Thereafter, 1.0 ml of the mixed solution is transferred to the third tube and mixed with the process continuing through the dilution steps desired. The tubes are then incubated at 35° C. for 16 to 20 hours. […] Various antimicrobic compounds designated (a)-(i) were tested for minimum inhibitory concentration in accord with the above procedure. Compounds (a)-(e) correspond to compounds (a)-(e) of example 9. Compounds (f)-(i) are as follow s: (f) 5-n -octylsulfonyl-4'-nitrosalicylanilide; (g) 5-n-decylsulfony-4'-bromosalicylanilide; (h) 5-n-hexylsulfonyl-4'-bromosalicylanilide; and, (i) 5-n-dodecylsulfonyl-4'-trifluoromethyl salicylanilide.

[4] = tested on: A. viscosus; assay: Tube dilution assay (Macro-Broth Dilution Method), A. viscosus; assay type: cell-based; settings: Actinomyces viscosus, read-out: Minimal Inhibitory Concentration
Experimental: as §4, §5

[5] = tested on: S. aureus; assay: Tube dilution assay (Macro-Broth Dilution Method), S. aureus; assay type: cell-based; settings: Staphylococcus aureus, Mueller-Hinton broth, 35° C., 16 to 20 hours, read-out: Minimal Inhibitory Concentration
Experimental: as §4, §5

[6] = tested on: S. pyogenes; assay: Tube dilution assay (Macro-Broth Dilution Method), S. pyogenes; assay type: cell-based; settings: Streptococcus pyogenes, read-out: Minimal Inhibitory Concentration
Experimental: as §4, §5

[7] = tested on: S. epidermidis; assay: Tube dilution assay (Macro-Broth Dilution Method), S. epidermidis; assay type: cell-based; settings: Staphylococcus epidermidis, read-out: Minimal Inhibitory Concentration
Experimental: as §4, §5

[8] = tested on: man; settings: in man; cited from earlier work
[9] = Acute oral toxicity, single dose; assay type: in vivo; settings: rat, in vivo; single dose oral route, Sprague-Dawley white rats
Experimental: (§6) Twelve female white rats averaging 250-300 grams in weight were fasted overnight and divided into three groups of four animals each. In one group each animal received, by gavage tube, 4 ml of an aqueous solution of 1% methylcellulose, the drug delivery vehicle. This group was the control group. The remaining two groups received doses of 750 and 2500 mg/kg respectively of 5-n-decylsulfonyl-4'-trifluoromethyl-salicylanilide in 4-ml aqueous 1% methyl cellulose suspension.
(§7) Within the first week following this single dose only one animal died.
(§8) An autopsy was performed and the cause of death was attributed to a punctured thoracic cavity during administration of the drug.

[10] = tested on: white rats; assay: Acute oral toxicity, single dose; assay type: in vivo; settings: 2,500 mg/kg dose group, eighth day; attributed to a punctured thoracic cavity during administration
Experimental: as §6, §7, §8

[11] = S. mutans, Mueller-Hinton broth, 35° C., 16 to 20 hours
[12] = A. viscosus, Mueller-Hinton broth, 35° C., 16 to 20 hours
[13] = S. pyogenes, Mueller-Hinton broth, 35° C., 16 to 20 hours
[14] = S. epidermidis, Mueller-Hinton broth, 35° C., 16 to 20 hours

In the case of `CCCCCCCCCCS(=O)(=O)c1ccc(O)c(C(=O)Nc2ccc([N+](=O)[O-])cc2)c1` [(c), 5-n-decylsulfonyl-4'-nitro-salicylanilide], the “Total Growth ID50 (50% growth inhibition dosage)” value [1] is reported as 2.3 × 10^-4, the “Maximum % Inhibition” value ([1]; at 0.2%) is reported as 93% and the “Total Growth ID50 (50% growth inhibition dosage)” value [2] is reported as 1.9 × 10^-4. The “Maximum % Inhibition” value ([2]; at 0.2%) was 80%, the MIC [3, 11] was 0.5 µg/mL (≈ 1.08 µM) and the MIC [4, 12] was 0.5 µg/mL (≈ 1.08 µM). It also gave an MIC [5] of 0.5 µg/mL (≈ 1.08 µM), an MIC [6, 13] of 0.5 µg/mL (≈ 1.08 µM) and an MIC [7, 14] of 0.5 µg/mL (≈ 1.08 µM).
In the case of tetrachlorosalicylanilide, the allergic reactions [8] is listed as “has been shown to produce allergic reactions in man”.
Work on `CCCCCCCCCCCCS(=O)(=O)c1ccc(O)c(C(=O)Nc2ccc(C(F)(F)F)cc2)c1` [(i), 5-n-dodecylsulfonyl-4'-trifluoromethyl salicylanilide] yielded an MIC [4, 12] of 0.05 µg/mL (≈ 0.0973 µM), an MIC [5] of 0.5 µg/mL (≈ 0.973 µM) and an MIC [6, 13] of 0.5 µg/mL (≈ 0.973 µM). It also gave an MIC [7, 14] of 0.1 µg/mL (≈ 0.195 µM).
With `O=C(Nc1ccc(Br)cc1)c1cc(Br)cc(Br)c1O` [(a), tribromosalan, reference compound] the “Total Growth ID50 (50% growth inhibition dosage)” value [1] was 8.8 × 10^-4, the “Maximum % Inhibition” value ([1]; at 0.2%) was 53% and the “Total Growth ID50 (50% growth inhibition dosage)” value [2] was 1.2 × 10^-7. The “Maximum % Inhibition” value ([2]; at 0.2%) was 46%, the MIC [3] was 1 µg/mL (≈ 2.22 µM) and the MIC [4] was 0.5 µg/mL (≈ 1.11 µM). The MIC [5] was 1 µg/mL (≈ 2.22 µM), the MIC [6] was 0.5 µg/mL (≈ 1.11 µM) and the MIC [7] was 0.5 µg/mL (≈ 1.11 µM).
With `CCCCCCCCCC(=O)c1ccc(O)c(C(=O)Nc2ccc([N+](=O)[O-])cc2)c1` [(b), 5-n-decanoyl-4'-nitrosalicylanilide, reference compound] the “Total Growth ID50 (50% growth inhibition dosage)” value [1] was 1.1 × 10^-4, the “Maximum % Inhibition” value ([1]; at 0.2%) was 90% and the “Total Growth ID50 (50% growth inhibition dosage)” value [2] was 2.3 × 10^-2. For the same compound, the “Maximum % Inhibition” value ([2]; at 0.2%) was 59%, the MIC [3, 11] was 5 µg/mL (≈ 12.1 µM) and the MIC [4, 12] was 0.05 µg/mL (≈ 0.121 µM). The MIC [5] was 0.1 µg/mL (≈ 0.242 µM), the MIC [6, 13] was 0.1 µg/mL (≈ 0.242 µM) and the MIC [7, 14] was 0.1 µg/mL (≈ 0.242 µM).
Compound `CCCCCCCCS(=O)(=O)c1ccc(O)c(C(=O)Nc2ccc([N+](=O)[O-])cc2)c1` [(f), 5-n-octylsulfonyl-4'-nitrosalicylanilide] has an MIC [3, 11] of 0.5 µg/mL (≈ 1.15 µM), an MIC [4, 12] of 1 µg/mL (≈ 2.3 µM) and an MIC [5] of 5 µg/mL (≈ 11.5 µM). It also gave an MIC [6, 13] of 5 µg/mL (≈ 11.5 µM) and an MIC [7, 14] of 5 µg/mL (≈ 11.5 µM).
With `CCCCCCS(=O)(=O)c1ccc(O)c(C(=O)Nc2ccc(Br)cc2)c1` [(h), 5-n-hexylsulfonyl-4'-bromosalicylanilide] the MIC [4, 12] was 5 µg/mL (≈ 11.4 µM), the MIC [5] was 5 µg/mL (≈ 11.4 µM) and the MIC [6, 13] was 5 µg/mL (≈ 11.4 µM). The MIC [7, 14] was 10 µg/mL (≈ 22.7 µM).
With `CCCCCCCCCCS(=O)(=O)c1ccc(O)c(C(=O)Nc2ccc(Br)cc2)c1` [(g), 5-n-decylsulfony-4'-bromosalicylanilide] the MIC [3, 11] was 1 µg/mL (≈ 2.01 µM), the MIC [4, 12] was 0.5 µg/mL (≈ 1.01 µM) and the MIC [5] was 5 µg/mL (≈ 10.1 µM). It also gave an MIC [6, 13] of 0.5 µg/mL (≈ 1.01 µM) and an MIC [7, 14] of 0.5 µg/mL (≈ 1.01 µM).
In the case of `CCCCCCCCCCS(=O)(=O)c1ccc(O)c(C(=O)Nc2ccc(C(F)(F)F)cc2)c1` [(d), 5-n-decylsulfonyl-4'-trifluoromethyl-salicylanilide], the “Total Growth ID50 (50% growth inhibition dosage)” value [1] is reported as 0.9 × 10^-4, the “Maximum % Inhibition” value ([1]; at 0.2%) is reported as 95% and the “Total Growth ID50 (50% growth inhibition dosage)” value [2] is reported as 1.9 × 10^-3. For the same compound, the “Maximum % Inhibition” value ([2]; at 0.2%) was 76%, the MIC [3, 11] was 0.5 µg/mL (≈ 1.03 µM) and the MIC [4, 12] was 0.1 µg/mL (≈ 0.206 µM). The MIC [5] was 0.5 µg/mL (≈ 1.03 µM), the MIC [6, 13] was 0.5 µg/mL (≈ 1.03 µM) and the MIC [7, 14] was 0.1 µg/mL (≈ 0.206 µM). For the same compound, the LD50 [9] was over 2500 mg/kg and the deaths [10] was “a second animal died”.
In the case of `CCCCCCCCCCS(=O)(=O)c1ccc(O)c(C(=O)Nc2cccc(C(F)(F)F)c2)c1` [(e), 5-n-decylsulfonyl-3'-trifluoromethyl-salicylanilide], the “Total Growth ID50 (50% growth inhibition dosage)” value [1] is reported as 6.8 × 10^-4, the “Maximum % Inhibition” value ([1]; at 0.1%) is reported as 83% and the “Total Growth ID50 (50% growth inhibition dosage)” value [2] is reported as 2.2 × 10^-3. The “Maximum % Inhibition” value ([2]; at 0.1%) was 47%, the MIC [3, 11] was 5 µg/mL (≈ 10.3 µM) and the MIC [4, 12] was 0.5 µg/mL (≈ 1.03 µM). The MIC [5] was 20 µg/mL (≈ 41.2 µM), the MIC [6, 13] was 0.5 µg/mL (≈ 1.03 µM) and the MIC [7, 14] was 0.5 µg/mL (≈ 1.03 µM).

— patent US4939132A, “Novel 5-alkylsulfonylsalicylanilides and microbiocidal compositions for controlling the growth of microorganisms” (The Research Foundation of State University of New York, priority 1985, dated 1990)
